Reference: patent publication US10610517B2, “Compositions and methods for treating neoplastic diseases” (Celgene International II Sàrl, priority 2004, dated 2020)
Like-named read-outs stand apart in the source and are kept apart here.

What was measured:
[1] = tested on: normal CCD-27sk fibroblasts; experiment: cells; assay type: cell-based, human
Excerpt: (§1) Whether the compound of formula (II) or Bortezomib alters proteasome activity in normal lymphocytes and skin fibroblasts was also examined.

[2] = tested on: Chymotrypsin-like proteasome activity; assay type: cell-based, human; settings: data not shown
Excerpt: as §1

MM.1S cells [3] = experiment: MTT viability of MM.1S cells with or without rhIL-6 or rhIGF-I; assay type: cell-based, human
Excerpt: Adhesion of MM cells to BMSCs induces IL-6 and IGF-I secretion from BMSCs, which not only regulates the growth of MM cells, but also protects against chemotherapy. See Hardin, J., MacLeod, S., Grigorieva, I., Chang, R., Barlogie, B., Xiao, H. & Epstein, J. (1994) Blood 84, 3063-70 and Chauhan, D., Kharbanda, S., Ogata, A., Urashima, M., Teoh, G., Robertson, M., Kufe, D. W. & Anderson, K. C. […] Thus, whether rhIL-6 or rhIGF-I inhibits apoptosis in MM cells induced by the compound of Formula (II) (X=Cl) was evaluated. […] At 24 h cells were harvested and viability analyzed by MTT assays. […] Median viability was 51±2.1% after treatment with Dex and 92±5.5% for Dex+rhIL-6 (P=0.05, as determined by one-sided Wilcoxon rank-sum test). Results are mean±SD of three independent experiments. […] In contrast and as in other studies, both IL-6 and IGF-I block Dex-induced decreased MM.1S cell viability. See Chauhan, D., Hideshima, T. & Anderson, K. C. (2003) Int J Hematol 78, 114-20 and Mitsiades, C. S., Mitsiades, N., Poulaki, V., Schlossman, R., Akiyama, M., Chauhan, D., Hideshima, T., Treon, S. P., Munshi, N. C., Richardson, P. G. & Anderson, K. C.

RPMI 8226 MM cells = assay type: in vivo, beige-nude-xid (BNX) mice
[4] = tested on: Mouse embryonic fibroblast (MEFs); experiment: MTT viability of MEFs with wild-type or knock-out Bax; assay type: cell-based; settings: 48 h; FIG. 12F
Excerpt: Results are mean±SD of three independent experiments (P<0.05).

MM.1S cells [5] = experiment: Mitochondrial and caspase apoptotic signaling in MM cells (flow cytometry, immunoblot); assay type: cell-based, human; settings: 7 nM
Procedure: Mitochondria play a critical role in apoptosis induction during stress. See Bossy-Wetzel, E. & Green, D. R. (1999) Mutat Res 434, 243-51 and Chauhan, D. & Anderson, K. C. […] Superoxide (O2^−) production was measured by staining cells with membrane permeable dye dihydroethidium (HE) for the last 15 min. Superoxide anions oxidize HE to fluorescent ethidium, permitting analysis by flow cytometry.
Reprobing the immunoblots with anti-Hsp60 (lower, left panel) and anti-tubulin (lower, right panel) Abs confirms purity of mitochondrial extracts and equal protein loading. Release of mitochondrial apoptogenic proteins cyto-c and Smac/DIABLO induce activation of caspases-9 and -3. […] As a control for equal loading of proteins and purity of mitochondrial fractions, filters were also reprobed with anti-tubulin (lower right panel) and anti-Hsp60 Abs (lower left panel), respectively. Blots are representative of three independent experiments.
Both caspase-9 (mitochondria-dependent) and caspase-8 (mitochondria-independent) are known to proteolytically cleave and activate a common downstream effector capsase-3, resulting in PARP cleavage. […] Total protein lysates were subjected to SDS-PAGE analysis. Immunoblot analysis of the lysates was performed with anti-PARP (upper panel) or anti-caspase-3 (lower panel) Abs. ‘FL’ indicates ‘full length’ and ‘CF’ denotes cleaved fragment.
Immunoblot analysis was performed using antibodies to cytochrome-c, Smac, Caspase-8, -9, or -3 (Cell Signaling, Beverly, Mass.), tubulin (Sigma, St. Louis, Mo.), PARP, Hsp60, or Bax (BD Bioscience Pharmingen, San Diego, Calif.). Blots were developed by enhanced chemiluminesence (ECL; Amersham, Arlington Heights, Ill.).

[6] = tested on: 20S proteasome in white blood cell (WBC) lysates; experiment: Ex vivo 20S proteasome activity in whole blood cells in mice
Procedure: To directly determine whether the compound of formula (II) (X=Cl) inhibits proteasome activity in vivo, the compound of formula (II) (X=Cl) was dissolved in 100% DMSO and serially diluted with 5% Solutol (Solutol® HS15; polyethylene glycol 660 12-hydroxystearate, BASF, Shreveport, La.) yielding a final concentration of 2% DMSO. The vehicle control consisted of 2% DMSO and 98% (5% Solutol® HS15). Male Swiss-Webster mice (five per group, 20-25 grams in weight) were treated at Bolder BioPATH, Inc. (Boulder, Colo.) with various concentrations of the compound either intravenously or orally at a volume of 10 mL/kg. One group of animals was untreated to establish a baseline of proteasome activity. Ninety minutes after administration of the compound, the animals were anesthetized and blood withdrawn by cardiac puncture. Packed whole blood cells were collected by centrifugation, washed with PBS, and frozen on dry ice for determination of ex vivo proteasome activity. Chymotrypsin-like activity of the 20S proteasome in white blood cell (WBC) lysates was determined using the peptide substrate suc-LLVY-AMC. Relative Fluoresence Units (RFU) were normalized using the protein concentrations of the cell lysates. The 20S proteasome activity of the individual mice is shown in FIG. 2 with the horizontal bar representing the average activity. […]

[7] = 0.25 or 0.5 mg/kg orally twice a week

For CC12OC(=O)C1(C(O)C1C=CCCC1)NC(=O)C2CCCl (stereo not drawn) [compound of formula (II) (X=Cl)], which IC50 [1] is on record?
The IC50 was 317 nM.

What about the “inhibition of Chymotrypsin-like proteasome activity” value ([2]; 20 nM) of the same compound?
Its value is 99%.

What about the “proteasome activity in CCD-27sk fibroblasts” value ([2]; treatment at the IC50) of the same compound?
Its value is “inhibited proteasome activity”.

And the median cell viability (MM.1S cells [3]; agent + rhIL-6 (10 ng/ml), 24 h (compound 7 nM; Dex 0.5 μM))?
Its median cell viability is 51.2±3.2%.

And the median cell viability (MM.1S cells [3]; agent alone, 24 h (compound 7 nM; Dex 0.5 μM))?
Its median cell viability is 47±2.3%.

What about the median cell viability (MM.1S cells [3]; compound 7 nM + rhIGF-I (50 ng/ml), 24 h) of the same compound?
The median cell viability was 50.3%±2.0.

What about the MM tumor growth (RPMI 8226 MM cells; [7]) of the same compound?
Its MM tumor growth is “significantly inhibits MM tumor growth”.

And the survival (RPMI 8226 MM cells; [7])?
Its survival is “prolongs survival”.

What about the neurological behavioral changes (RPMI 8226 MM cells; after 12 weeks of treatment, oral) of the same compound?
The neurological behavioral changes was “no neurological behavioral changes were observed”.

What about the “treated mice with no recurrence of tumor” value (RPMI 8226 MM cells; day 300, oral, FIG. 10C) of the same compound?
The value was 57%.

And the tumor progression (RPMI 8226 MM cells; i.v. twice weekly (compound 0.15 mg/kg; Bortezomib 1.0 mg/kg), p<0.01)?
The tumor progression was “significantly reduced the tumor progression”.

What about the survival (RPMI 8226 MM cells; i.v. twice weekly (compound 0.15 mg/kg; Bortezomib 1.0 mg/kg), p=0.0137) of the same compound?
Its survival is “prolonged survival”.

And the “tolerability and body weight” value (RPMI 8226 MM cells; oral 0.25 or 0.5 mg/kg, FIG. 10D)?
The value was “well tolerated by mice, without evidence of weight loss”.

What about the “treated mice with complete regression of tumors” value (RPMI 8226 MM cells; oral, twice a week) of the same compound?
Its value is 70%.

What about the “histologic analysis of the inoculation sites” value (RPMI 8226 MM cells; versus vehicle, FIG. 10E) of the same compound?
Its value is “disappearance of plasma cells”.

And the “cell viability in Bax (WT) and Bax (knock-out) MEFs” value [4]?
Its value is “decreases viability in both Bax (WT) and Bax (knock-out)”.

What about the “mitochondrial membrane potential (ΔΨm), CMXRos” value (MM.1S cells [5]; 12 h, serum starved MM.1S, FIG. 11A) of the same compound?
The value was “decreases ΔΨm”.

What about the “Superoxide (O2−) production, dihydroethidium” value (MM.1S cells [5]; 12 h, FIG. 11B) of the same compound?
Its value is “triggers O2^− production”.

And the “caspase-3 and PARP cleavage” value (MM.1S cells [5]; 24 h, MM.1S or MM.1R, FIG. 11F)?
Its value is “triggers caspase-3 and PARP cleavage”.

And the “mitochondrial versus cytosolic cyto-c and smac” value (MM.1S cells [5]; 24 h, FIG. 11C)?
The value was “triggers a decrease in mitochondrial cyto-c”.

And the caspase-9 cleavage (MM.1S cells [5]; 24 h, FIG. 11D)?
The caspase-9 cleavage was “induces proteolytic cleavage of caspase-9”.

What about the caspase-8 activation (MM.1S cells [5]; 24 h, FIG. 11E) of the same compound?
Its caspase-8 activation is “activates caspase-8”.

What about the oral activity ([6]; oral administration, mice) of the same compound?
Its oral activity is “orally active”.

And the “Chymotrypsin-like activity of the 20S proteasome in WBC lysates” value ([6]; single i.v. or oral administration, 90 minutes after administration, FIG. 2)?
Its value is “inhibits chymotrypsin-like activity of 20S proteasomes in white blood cells in a dose-dependent manner”.
